Assays:
[1] = system: Differentiated U937 cells; experiment: LPS-induced TNFα release in differentiated U937 cells; assay type: cell-based; conditions: Homo sapiens, U-937; 0.1 ug/ml LPS, 4 hrs; compound pre-incubated 2 hrs
Method: U937 cells, human monocytic cell line, were differentiated to macrophage-type cells by incubation with phorbol myristate acetate (PMA; 100 ng/ml) for 48 to 72 hours. Where appropriate, cells were pre-incubated with final concentrations of compound for 2 hrs. Cells were then stimulated with 0.1 ug/ml of LPS (from E. Coli: O111:B4, Sigma) for 4 hrs, and the supernatant collected for determination of TNFα concentration by sandwich ELISA (Duo-set, R&D systems). THP-1, human monocytic cell line, was also used for this assay. THP-1 cells were stimulated with 1 ug/ml of LPS (from E. Coli: O111:B4, Sigma) for 4 hrs, and the supernatant collected for determination of TNFα concentration.

[2] = system: Differentiated U937 cells; experiment: MTT assay in differentiated U937 cells; assay type: cell-based, human; conditions: 4, 24 h (10 ug/ml)
Method: Differentiated U937 cells were pre-incubated with compound for 4 hrs in 5% FCS or 10% FCS for 24 hrs and 72 hrs. The supernatant was replaced with 200 ul of new media and 10 ul of MTT stock solution (5 mg/ml) added to each well. After 1 hr incubation, the media were removed, 200 ul of DMSO added to each well and the plates were shaken lightly for 1 hour prior to reading the absorbance at 550 nm.
The percentage loss of cell viability was calculated for each well relative to vehicle (0.5% DMSO)-treatment. Consequently an apparent increase in cell viability for drug treatment relative to vehicle is tabulated as a negative percentage.

[3] = system: LPS-induced neutrophil accumulation; experiment: LPS-induced neutrophilia in the mouse; assay type: in vivo
[4] = system: neutrophil and macrophage accumulation into airways of mice exposed to cigarette smoke; experiment: Cigarette smoke model; assay type: in vivo, A/J mice; conditions: intra-nasal, twice daily for 3 days
Method: A/J mice (males, 5 weeks old) were exposed to cigarette smoke (4% cigarette smoke, diluted with compressed air) for 30 min/day for 11 days using a Tobacco Smoke Inhalation Experiment System for small animals (Model SIS-CS; Sibata Scientific Technology, Tokyo, Japan). Test substances were given intra-nasally (35 μl of solution in 50% DMSO/PBS) and therapeutically twice daily for 3 days after the final cigarette smoke exposure. Twelve hours after the last dosing, animals were anesthetized, the trachea cannulated and bronchoalveolar lavage fluid (BALF) was collected. The numbers of alveolar macrophages and neutrophils were determined by FACS analysis (EPICS® ALTRA II, Beckman Coulter, Inc., Fullerton, Calif., USA) using anti-mouse MOMA2 antibody (macrophage) or anti-mouse 7/4 antibody (neutrophil).
The results are shown in FIG. 3 for activated alveolar macrophages and in FIG. 4 for neutrophils. Data for cell numbers are shown as the mean±SEM.

[5] = system: ovalbumin-mediated lung function changes (sGaw); experiment: Ovalbumin challenge/parainfluenza infection model (in vivo model for steroid resistance); set-up: species or system Dunkin-Hartley guinea-pigs
Method: Male Dunkin-Hartley guinea-pigs (300-350 g, n=6/group) were sensitised with 100 μg ovalubumin (OVA)+100 mg Al2(OH)3 in 1 ml normal saline (i.p.) on days 2 and 6. Parainfluenza virus (PIV-3; 10^6 infectious units) or media without virus was nasally instilled on days 11 and 12. Animals were treated with nebulised fluticasone propionate at a dose of 1.5 mg per day. […] All animals were challenged for 1 h with nebulised OVA (10 μg/ml) on day 15 and repeated measurements of specific airways conductance (sGaw) were made over a 24 h period using whole body plethysmography. Measurements of sGaw after OVA challenge are plotted as % change from baseline.

Row | SMILES | IC50 [1] [nM] | Differentiated U937 cells MTT assay [2] | Inhibition of LPS-induced neutrophil accumulation ([3]; mouse, intra tracheal pre-dosing, BALF 8 hours after LPS) | Duration of effect on LPS-induced neutrophil accumulation ([3]; mouse, pre-dose time before LPS) | Efficacy in cigarette smoke model of steroid-resistant inflammation [4] | Efficacy in ovalbumin challenge/parainfluenza model of steroid-resistant inflammation ([5]; guinea pigs, PIV3 inoculated, 4.5 mg per day nebulised) | inhibition at 50 µg/mL ([3]; Mus musculus, Neutrophil, 50 μg/ml (35 μl, bid)) [%] | Ovalbumin-mediated lung function changes ([5]; sensitized animals treated with PIV3 medium (no virus), nebulised 1.5 mg per day)
1 | COCC(=O)Nc1cc(COc2ccc(NC(=O)Nc3cc(C(C)(C)C)nn3-c3ccc(C)cc3)c3ccccc23)ccn1 [Example 1, N-[4-({4-[3-(3-tert-Butyl-1-p-tolyl-1H-pyrazol-5-yl)ureido]naphthalen-1-yloxy}methyl)pyridin-2-yl]-2-methoxyacetamide] | 0.88 | Negative^2 | effective in inhibiting LPS-induced neutrophil accumulation | significant inhibition even at 12 or more hours of pre-dosing | effective | effective | – | –
2 | CCC(=O)O[C@]1(C(=O)SCF)[C@H](C)C[C@H]2[C@@H]3C[C@H](F)C4=CC(=O)C=C[C@]4(C)[C@@]3(F)[C@@H](O)C[C@@]21C [fluticasone propionate, reference compound] | – | – | – | – | – | – | > 80 | inhibited ovalbumin-mediated lung function changes

— patent US8293771B2, “p38 MAP kinase inhibitors” (Respivert Ltd., priority 2008, dated 2012)
